The numbers were not newly measured in patent US9198988B2, “Nanoparticulate manganese MRI contrast agents” (Kent State University, priority 2011, dated 2015), which cites them from elsewhere.

The conditions of data set [1]: commercial MRI contrast agents.
For data set [2] the following is noted: commercial MRI contrast agents. The source holds these as a separate data set.

In the case of `O=C([O-])CN1CCN(CC(=O)[O-])CCN([C@H](CO)[C@H](O)CO)CCN(CC(=O)[O-])CC1.[Gd+3]` (racemic) [Gadovist ®], in data set [1], the “r1 (relaxivity)” value is 5.3 mM⁻¹ s⁻¹. The “LogKGdL (stability constant)” value in data set [2] was 20.8.
In the case of `CNC[C@H](O)[C@@H](O)[C@H](O)[C@H](O)CO.O=C([O-])CN1CCN(CC(=O)[O-])CCN(CC(=O)O)CCN(CC(=O)[O-])CC1.[Gd+3]` [Dotarem ®], the “r1 (relaxivity)” value in data set [1] was 4.2 mM⁻¹ s⁻¹. Besides, in data set [2], the “LogKGdL (stability constant)” value is listed as 25.3.
With `CNC[C@H](O)[C@@H](O)[C@H](O)[C@H](O)CO.CNC[C@H](O)[C@@H](O)[C@H](O)[C@H](O)CO.O=C([O-])CN(CCN(CC(=O)[O-])CC(=O)O)CCN(CC(=O)[O-])CC(=O)O.[Gd+3]` [Magnevist ®], in data set [1], the “r1 (relaxivity)” value is 4.3 mM⁻¹ s⁻¹. The “LogKGdL (stability constant)” value in data set [2] is given as 22.2.
`CNC[C@H](O)[C@@H](O)[C@H](O)[C@H](O)CO.CNC[C@H](O)[C@@H](O)[C@H](O)[C@H](O)CO.O=C([O-])CN(CCN(CC(=O)[O-])CC(=O)O)CCN(CC(=O)O)C(COCc1ccccc1)C(=O)[O-].[Gd+3]` (centres unmarked) [MultiHance]: the “r1 (relaxivity)” value in data set [1] was 6.7 mM⁻¹ s⁻¹. For the same compound, the “LogKGdL (stability constant)” value in data set [2] is given as 18.4.
On to `CNC(=O)CN(CCN(CCN(CC(=O)[O-])CC(=O)NC)CC(=O)[O-])CC(=O)[O-].[Gd+3]` [Omniscan ®], for which the “r1 (relaxivity)” value in data set [1] is 4.6 mM⁻¹ s⁻¹. The “LogKGdL (stability constant)” value in data set [2] is reported as 16.8.
For the compound `COCCNC(=O)CN(CCN(CCN(CC(=O)[O-])CC(=O)NCCOC)CC(=O)[O-])CC(=O)[O-].[Gd+3]` [OptiMARK], the “r1 (relaxivity)” value in data set [1] is 5.2 mM⁻¹ s⁻¹. For the same compound, the “LogKGdL (stability constant)” value in data set [2] is 16.8.
Regarding `CCOc1ccc(CC(CN(CCN(CC(=O)[O-])CC(=O)[O-])CC(=O)[O-])N(CC(=O)[O-])CC(=O)[O-])cc1.[Gd+3].[Na+].[Na+]` (centres unmarked) [Primovist], in data set [1], the “r1 (relaxivity)” value is 7.3 mM⁻¹ s⁻¹. Further, the “LogKGdL (stability constant)” value in data set [2] is reported as 23.5.
With `CC(O)CN1CCN(CC(=O)[O-])CCN(CC(=O)[O-])CCN(CC(=O)[O-])CC1.[Gd+3]` (centres unmarked) [ProHance ®], in data set [1], the “r1 (relaxivity)” value was 4.4 mM⁻¹ s⁻¹.
As for `O=C([O-])CN(CCN(CC(=O)[O-])CC(COP(=O)([O-])OC1CCC(c2ccccc2)(c2ccccc2)CC1)N(CC(=O)[O-])CC(=O)[O-])CC(=O)[O-].[Gd+3].[Na+].[Na+].[Na+]` (centres unmarked) [Vasovist], in data set [1], the “r1 (relaxivity)” value is 19 mM⁻¹ s⁻¹. Further, the “LogKGdL (stability constant)” value in data set [2] is listed as 23.2.
